Experimental data from EP0462621A2, “Use of particular compounds for manufacture of pharmaceutical formulations for treatment against various parasites, mycoplasmas, other indications and other infections” (Prendergast, Patrick Thomas, priority 1990, dated 1991).

Columns and labels:
[1] = tested on: Human peripheral blood mononuclear cells; assay: Experiment 1a(d): human cell viability, trypan blue counts; type: cell-based; details: 18 hours; for Cells/ml (x10^5) / Viability (%): 37° C
Method: Human peripheral blood mononuclear cells were incubated for 18 hours in the presence of various concentrations of IPA and azidothymidine (AZT) at 37° C after which time cell viability was determined by visual counts of cells in the presence of trypan blue. Two controls were run, one with each series of experiments.

HIV = HIV production from H9 cells persistently infected with HIV, RT activity; type: cell-based
Method: To examine the effect of IPA on the production of HIV-1 in H9 cells persistently infected with HIV-1, 5x10^6 HIV-1-infected H9 cells were incubated in the absence or presence of IPA. Every 4-5 days, two thirds of the total cells were removed and medium was changed. New medium with or without drug was added to bring up to the original volume. At days indicated, culture supernatant was withdrawn and tested for the production of HIV-1 by the RT activity. A 20,000 cpm or more TCA insoluble radioactivity per millilitre of supernatant was considered positive in the RT assay. Results

Enterocytozoon bieneusi = assay: Clinical evaluation of AIDS patients with chronic diarrhoea treated with IPA (stool examinations, endoscopic biopsies); type: in vivo; details: E. bieneusi identified prior to treatment
Excerpt: Chronic diarrhoea accompanied by wasting is one of the most frequent problems associated with HIV infection. […] A new genera and species of microspora, Enterocytozoon bieneusi, was identified in ultrastructural studies of intestinal biopsies from AIDS patients with unexplained chronic diarrhoea prior to treatment with IPA.
E. bieneusi microsporidiosis (intestinal microsporidiosis) is diagnosed with increasing frequency in AIDS patients with chronic diarrhoea of unknown origin. Forty-seven cases have been reported in the United States, Africa and Europe. […] Until now, diagnosis depended upon light and electron microscopy studies of small bowel biopsies, particularly of the jejunum. Diagnosis is suspected on histological findings either on Giemsa-stained smears and/or hematoxylin-eosin or Giemsa-stained paraffin sections: identification of oval parasites measuring 2-9 u.m and clusters of refractile spores (1-1.5 u.m) in villous enterocytes from just above the mouth of the crypts to the tips of the villi. These organisms are located in the supranuclear position of the cytoplasm. […] Recently reported recovery of spores from faeces, would simplify diagnosis. Unlike other species of microspora, E. bieneusi has not been identified from different organs such as brain and kidney. A proportion of transient diarrhoeas of unknown etiology in AIDS patients may be related to E. bieneusi. […]

[2] = Solubility of IPA in water; type: physicochemical

CC(C)=CCNc1ncnc2c1ncn2[C@@H]1O[C@H](CO)[C@@H](O)[C@H]1O [IPA, N^6-(Δ^2-isopentenyl) adenosine]
Cells/ml (x10^5) ([1]; 0.1 µM): 2.4 Cells/ml (x10^5)
Viability (%) ([1]; 0.1 µM): 86%
Cells/ml (x10^5) ([1]; 0.3 µM): 1.8 Cells/ml (x10^5)
Viability (%) ([1]; 0.3 µM): 82%
Cells/ml (x10^5) ([1]; 1 µM): 2.8 Cells/ml (x10^5)
Viability (%) ([1]; 1 µM): 100%
Cells/ml (x10^5) ([1]; 3 µM): 2.6 Cells/ml (x10^5)
Viability (%) ([1]; 3 µM): 87%
Cells/ml (x10^5) ([1]; 10 µM): 3.0 Cells/ml (x10^5)
Viability (%) ([1]; 10 µM): 94%
Cells/ml (x10^5) ([1]; 30 µM): 3.8 Cells/ml (x10^5)
Viability (%) ([1]; 30 µM): 95%
Cells/ml (x10^5) ([1]; 100 µM): 3.8 Cells/ml (x10^5)
Viability (%) ([1]; 100 µM): 90%
Cells/ml (x10^5) ([1]; 300 µM): 2.2 Cells/ml (x10^5)
Viability (%) ([1]; 300 µM): 79%
Cells/ml (x10^5) ([1]; 1000 µM): 2.8 Cells/ml (x10^5)
Viability (%) ([1]; 1000 µM): 82%
Cells/ml (x10^5) ([1]; 3000 µM): 2.2 Cells/ml (x10^5)
Viability (%) ([1]; 3000 µM): 92%
cell viability ([1]; 6mM): slight reduction
Cells/ml (x10^5) ([1]; 6000 µM): 2.4 Cells/ml (x10^5)
Viability (%) ([1]; 6000 µM): 75%
toxic effect (cell viability) ([1]; concentrations of from 0.1 µM to 3 u.M): no toxic effect
HIV PRODUCTION RT ACTIVITY cpm/ml (HIV; DRUG CONCENTRATION 3.75 (unit not given), 15 DAYS p.d., without drug 3 x 10^5): 2.3 x 10^5 cpm/ml
HIV PRODUCTION RT ACTIVITY cpm/ml (HIV; DRUG CONCENTRATION 3.75 (unit not given), 25 DAYS p.d., without drug 1.1 x 10^6): 1.2 x 10^5 cpm/ml
HIV PRODUCTION RT ACTIVITY cpm/ml (HIV; DRUG CONCENTRATION 7.5 (unit not given), 15 DAYS p.d., without drug 3 x 10^5): 2.9 x 10^5 cpm/ml
HIV PRODUCTION RT ACTIVITY cpm/ml (HIV; DRUG CONCENTRATION 7.5 (unit not given), 25 DAYS p.d., without drug 1.1 x 10^6): 3.2 x 10^5 cpm/ml
HIV PRODUCTION RT ACTIVITY cpm/ml (HIV; DRUG CONCENTRATION 15 (unit not given), 15 DAYS p.d., without drug 3 x 10^5): 2.3 x 10^5 cpm/ml
HIV PRODUCTION RT ACTIVITY cpm/ml (HIV; DRUG CONCENTRATION 15 (unit not given), 25 DAYS p.d., without drug 1.1 x 10^6): 3.6 x 10^5 cpm/ml
HIV PRODUCTION RT ACTIVITY cpm/ml (HIV; DRUG CONCENTRATION 30 (unit not given), 15 DAYS p.d., without drug 3 x 10^5): 2.9 x 10^5 cpm/ml
HIV PRODUCTION RT ACTIVITY cpm/ml (HIV; DRUG CONCENTRATION 30 (unit not given), 25 DAYS p.d., without drug 1.1 x 10^6): 2.5 x 10^5 cpm/ml
pathogen found on clinical evaluation (Enterocytozoon bieneusi): fails to identify any pathogen
solubility in water [2]: does not readily dissolve in water
